Laboratory results published in patent publication US7605182B2, “Compounds that selectively bind to membranes of apoptotic cells” (Aposense Ltd., priority 2003, dated 2009).

Test system: apoptotic Jurkat cells
Test: Selective binding of NST-892 to apoptotic Jurkat cells; flow-cytometric (FACS) analysis
Type: cell-based, human
Conditions: 500 μM compound, 20 minutes
Description: Cultured Jurkat cells (human […] T cell leukemia cells) were grown in suspension in RPMI medium (Beit-Haemek, Israel), supplemented with 10% of fetal calf serum (FCS), 4 mM of L-glutamine, 1 mM of sodium pyruvate, 1 mM CaCl2 and antibiotics (100 units/ml penicilin; 100 μg/ml streptomycin and 12.5 units/ml of nystatin) Prior to induction of apoptosis, medium was replaced with HBS buffer (10 mM HEPES; 140 mM NaCl, 1 mM CaCl). Apoptosis was then triggered by treatment with anti-Fas Ab (0.1 μg/ml; 2.5 hrs). Both control cells and apoptotic cells were then incubated for 20 minutes with 500 μM of NST-892 dissolved in 0.1 m NaPpi pH=7.4. Subsequently, cells were co-stained with propidium iodide (PI), a marker of membrane disintegration during late phases of cell death, and the selective binding of the NST-892 compounds to control and apoptotic cells was determined by flow cytometric (FACS) analysis using Becton-Dickinson cell sorter and CellQuest software (excitation was at 356 nm and emission was measured at 530 nm).

`CN(C)c1cccc2c(S(=O)(=O)NC(C(=O)O)c3cccc4c(C(N)C(=O)O)cccc34)cccc12` (centres unmarked) [NST-892, Mono Dansyl Naphthalene Diglycine] was tested, and the “percent of identified early apoptotic events within the population (cells binding NST-892, excluding PI)” value (apoptotic Jurkat cells (anti-Fas Ab 0.1 μg/ml; 2.5 hrs)) was 68.9% and the “percent of identified early apoptotic events within the population (cells binding NST-892, excluding PI)” value (non-treated control Jurkat cells) was 3.3%.
